# Experimental data: PubChem BioAssay AID1845199 (Molecular Pharmacology Branch, DTP, NCI, 2023)
# System: 556581-035-R-J1 tumor spheroid viability, % test/control
# Experiment: Anticancer human tumor 556581-035-R-J1 patient-derived ovarian carcinoma cell line growth inhibition
# Conditions: spheroids with HUVEC and MSC; for IC50: curve of first compound; for viability, T/C: stronger effect = lower value
# Summary of the method: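 Single agents and combinations were tested on spheroids built from tumor cells plus HUVEC and hMSC, at half-log dilutions starting at or near clinical Cmax, else 10 microM; final DMSO 0.25% (v/v).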
# [1] = second compound 1 µM, first compound 0.00949 µM
# [2] = second compound 1 µM, first compound 0.03 µM
# [3] = second compound 1 µM, first compound 0.0949 µM
# [4] = second compound 1 µM, first compound 0.3 µM
# [5] = second compound 1 µM, first compound 0.949 µM
# [6] = second compound 1 µM, first compound 3 µM
# [7] = second compound 3.16 µM, first compound 0.00949 µM
# [8] = second compound 3.16 µM, first compound 0.03 µM
# [9] = second compound 3.16 µM, first compound 0.0949 µM
# [10] = second compound 3.16 µM, first compound 0.3 µM
# [11] = second compound 3.16 µM, first compound 0.949 µM
# [12] = second compound 3.16 µM, first compound 3 µM
# [13] = second compound 10 µM, first compound 0.00949 µM
# [14] = second compound 10 µM, first compound 0.03 µM
# [15] = second compound 10 µM, first compound 0.0949 µM
# [16] = second compound 10 µM, first compound 0.3 µM
# [17] = second compound 10 µM, first compound 0.949 µM
# [18] = second compound 10 µM, first compound 3 µM
# [19] = second compound 31.6 µM, first compound 0.00949 µM
# [20] = second compound 31.6 µM, first compound 0.03 µM
# [21] = second compound 31.6 µM, first compound 0.0949 µM
# [22] = second compound 31.6 µM, first compound 0.3 µM
# [23] = second compound 31.6 µM, first compound 0.949 µM
# [24] = second compound 31.6 µM, first compound 3 µM
# [25] = second compound 100 µM, first compound 0.00949 µM
# [26] = second compound 100 µM, first compound 0.03 µM
# [27] = second compound 100 µM, first compound 0.0949 µM
# [28] = second compound 100 µM, first compound 0.3 µM
# [29] = second compound 100 µM, first compound 0.949 µM
# [30] = second compound 100 µM, first compound 3 µM
# 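Further: spheroids exposed to compounds for 7 days before viability read.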
SMILES,IC50 (second compound 1 µM),IC50 (second compound 3.16 µM),IC50 (second compound 10 µM),IC50 (second compound 31.6 µM),IC50 (second compound 100 µM),"viability, T/C [3]","viability, T/C [4]","viability, T/C [5]","viability, T/C [6]","viability, T/C [9]","viability, T/C [10]","viability, T/C [11]","viability, T/C [12]","viability, T/C [15]","viability, T/C [16]","viability, T/C [17]","viability, T/C [18]","viability, T/C [21]","viability, T/C [22]","viability, T/C [23]",also measured
CNCc1ccc(-c2cc(-c3nc(-c4ccc(S(=O)(=O)C(C)C)cc4)cnc3N)on2)cc1 + Cn1nnc2c(C(N)=O)ncn2c1=O,1670 nM,1560 nM,1380 nM,1380 nM,953 nM,109%,104%,80.2%,18.6%,105%,106%,72.6%,20%,110%,105%,67.3%,15.3%,110%,98.4%,66.2%,"viability, T/C [1]: 101%; viability, T/C [2]: 108%; viability, T/C [7]: 104%; viability, T/C [8]: 117%; viability, T/C [13]: 106%; viability, T/C [14]: 109%; viability, T/C [19]: 113%; viability, T/C [20]: 113%; viability, T/C [24]: 16.5%; viability, T/C [25]: 111%; viability, T/C [26]: 102%; viability, T/C [27]: 120%; viability, T/C [28]: 98.2%; viability, T/C [29]: 50.5%; viability, T/C [30]: 11.6%"
Cn1ncnc1[C@H]1c2n[nH]c(=O)c3cc(F)cc(c23)N[C@@H]1c1ccc(F)cc1 + Cn1nnc2c(C(N)=O)ncn2c1=O,> 3000 nM,> 3000 nM,> 3000 nM,1950 nM,1240 nM,87.3%,75.5%,67.6%,51.1%,87.7%,73.9%,67.8%,50.2%,85.8%,76.6%,66%,52.2%,77.9%,68.3%,62.3%,"viability, T/C [1]: 99.5%; viability, T/C [2]: 93.1%; viability, T/C [7]: 102%; viability, T/C [8]: 89.7%; viability, T/C [13]: 94%; viability, T/C [14]: 88.7%; viability, T/C [19]: 86.4%; viability, T/C [20]: 74.4%; viability, T/C [24]: 43%; viability, T/C [25]: 74.4%; viability, T/C [26]: 71.8%; viability, T/C [27]: 70.4%; viability, T/C [28]: 65.9%; viability, T/C [29]: 54.7%; viability, T/C [30]: 34%"
O=C(c1cc(Cc2n[nH]c(=O)c3ccccc23)ccc1F)N1CCN(C(=O)C2CC2)CC1 + Cn1nnc2c(C(N)=O)ncn2c1=O,> 30000 nM,> 30000 nM,> 30000 nM,> 30000 nM,> 30000 nM,99%,100%,102%,90.8%,100%,99.8%,95.4%,89.9%,98.6%,100%,98.7%,89.1%,104%,101%,90.3%,"viability, T/C (second compound 1 µM, first compound 9.49 µM): 80.2%; viability, T/C (second compound 1 µM, first compound 30 µM): 71.9%; viability, T/C (second compound 3.16 µM, first compound 9.49 µM): 82.4%; viability, T/C (second compound 3.16 µM, first compound 30 µM): 63.9%; viability, T/C (second compound 10 µM, first compound 9.49 µM): 74.6%; viability, T/C (second compound 10 µM, first compound 30 µM): 64.3%; viability, T/C [24]: 85.3%; viability, T/C (second compound 31.6 µM, first compound 9.49 µM): 70.9%; viability, T/C (second compound 31.6 µM, first compound 30 µM): 62.9%; viability, T/C [27]: 92.7%; viability, T/C [28]: 83.6%; viability, T/C [29]: 80.2%; viability, T/C [30]: 70.6%; viability, T/C (second compound 100 µM, first compound 9.49 µM): 67.9%; viability, T/C (second compound 100 µM, first compound 30 µM): 54.7%"
